Read-outs that look alike come from different tables or passages of the source.
How the values were obtained:
[1] = biological target: CYP3A4 (Homo sapiens, UniProt P08684); assay: biochemical; conditions: human liver microsomes
Procedure: Human liver microsomes were prepared and pooled from ten human livers (HL20–24,28–32) as previously described. Human liver samples were obtained from the University Hospital of Oulu as surplus tissue from cadaver kidney transplant donors. The collection of surplus tissue was approved by the Ethics Committee of the Medical Faculty of the University of Oulu, Finland. All donors were Caucasians ranging in age from 21 to 62 years; four were female and six were male. Detailed information on each donor has been published previously. Protein concentrations were measured using the Bradford method.
In vitro inhibition of CYP isoforms was first assessed using the N-in-one approach (also called the cocktail approach). CYP-selective substrates and reactions are listed in Table 1; concentrations were roughly at or below the respective Michaelis-Menten coefficients. […] A Micromass LCT time-of-flight high-resolution mass spectrometer (Micromass Ltd., Manchester, UK) equipped with a Z-spray electrospray ionization source was used for the monitoring of CYP-selective reactions. Integrated mass chromatogram peak areas were normalized versus internal standards before comparing metabolites in different preparations. More details of the assay are available in previous publications.

[2] = system: CYP enzyme activities; conditions: cultured human hepatocytes
Procedure: (§1) Freshly isolated human hepatocytes were obtained from the UK Human Tissue Bank (Leicester, UK).
(§2) Omeprazole (CYP1A2 inducer; 30 μM), phenobarbital (CYP2B6 inducer; 1 mM) and rifampicin (CYP2C9, CYP2C19, and CYP3A4 inducer; 50 μM) dissolved in dimethyl sulfoxide (0.5% v/v final), served as reference inducers.

[3] = system: CYP1A2; conditions: 0.2, 2 and 20 μM for 48 h
Procedure: as §1, §2

[4] = system: CYP2B6; conditions: 20 μM, 48 h
Procedure: as §1, §2

[5] = system: CYP2C19; conditions: 0.2, 2 and 20 μM for 48 h
Procedure: as §1, §2

[6] = system: CYP2C9; conditions: 0.2, 2 and 20 μM for 48 h
Procedure: as §1, §2

[7] = system: CYP3A4; conditions: 20 μM, 48 h
Procedure: as §1, §2

[8] = cited from earlier work
[9] = ref data on file, cited from earlier work
[10] = steady state, converted from ng/mL

CYP3A4 (Homo sapiens, UniProt P08684), sequence (P08684 whole entry): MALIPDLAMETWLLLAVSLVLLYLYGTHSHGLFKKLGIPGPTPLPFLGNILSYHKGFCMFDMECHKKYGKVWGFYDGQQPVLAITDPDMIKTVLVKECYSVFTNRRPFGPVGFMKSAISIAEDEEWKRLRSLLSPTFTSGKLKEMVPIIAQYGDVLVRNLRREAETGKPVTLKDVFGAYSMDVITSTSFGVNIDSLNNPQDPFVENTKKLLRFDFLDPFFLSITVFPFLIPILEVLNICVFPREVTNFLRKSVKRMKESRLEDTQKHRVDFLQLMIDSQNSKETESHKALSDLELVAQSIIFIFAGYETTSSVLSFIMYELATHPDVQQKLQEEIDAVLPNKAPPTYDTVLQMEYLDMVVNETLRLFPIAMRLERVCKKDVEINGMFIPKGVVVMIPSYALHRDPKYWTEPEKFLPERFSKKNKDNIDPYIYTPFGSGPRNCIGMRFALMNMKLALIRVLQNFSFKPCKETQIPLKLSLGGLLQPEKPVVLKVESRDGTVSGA

SMILES: OCCOc1ccc(/C(=C(/CCCl)c2ccccc2)c2ccccc2)cc1 [Ospemifene]
- IC50 ([1]; IC50, Midazolam 1′-hydroxylation, probe 0.4 μM): > 100 µM
- IC50 ([1]; IC50, Omeprazole 3-hydroxylation, probe 2 μM): 37.9 µM
- IC50 ([1]; IC50, Omeprazole sulfoxidation, probe 2 μM): > 100 µM
- IC50 ([1]; IC50, Testosterone 6β-hydroxylation, probe 1 μM): > 100 µM
- Induction of CYPs [2]: ≤ 2.4 fold
- Change in CYP1A2 activity [3]: did not cause any relevant changes
- Induction of CYP2B6 activity [4]: approximately two-fold
- Change in CYP2C19 activity [5]: did not cause any relevant changes
- Change in CYP2C9 activity [6]: did not cause any relevant changes
- Induction of CYP3A4 activity [7]: approximately two-fold
- average plasma half-life ([8]; introduction, no reference given): about 20 h
- Cav at steady state [8, 10]: ~600 nM
- Cmin at steady state [8, 10]: ~250 nM
- Cmax ([8]; steady state, converted from ng/mL, read-out: mean Cmax at steady state): ~2000 nM
- Cav at steady state ([8]; steady state): 227 ng/mL
- Cmin at steady state ([8]; steady state): 94 ng/mL
- mean Cmax at steady state ([8]; steady state): 785 ng/mL
- Change of serum concentrations of ospemifene ([9]; fluconazole pretreatment): increased
- Change of serum concentrations of ospemifene ([9]; ketoconazole pretreatment): increased
- Change of serum concentrations of ospemifene ([9]; omeprazole pretreatment): minimally changed
- Change of serum concentrations of ospemifene ([9]; rifampicin pretreatment): reduced

From paper PMC3742231 (International Journal of Molecular Sciences, 2013)
